Measurements reported in patent US20150157021A1, “NEW ANTIFUNGAL COMPOSITIONS” (DSM IP ASSETS B.V., priority 2012, published 2015).

Tests used:
[1] = system: Penicillium italicum; experiment: Treatment of wounded oranges inoculated with Penicillium italicum (Examples 7, 8); assay type: in vivo; settings: 20° C., 250 ppm natamycin, 400 ppm boscalid or both
Description: Ten fresh, organic oranges were used per treatment. Each orange was soaked in a 180 ppm hypochlorite solution for 10 minutes, then rinsed thoroughly with fresh tap water and dried. The peel of each disinfected orange was wounded once using a cork borer according to the method described by de Lapeyre de Bellaire and Dubois (1987). Subsequently, each wound was inoculated with 10 μl of a Penicillium italicum suspension containing 1×10^5 of spores/ml. After incubation for 3 hours at 20° C., each wound and the orange peel area of 1 cm around the wound was treated with in total 150 μl of a freshly prepared aqueous antifungal composition comprising either 500 ppm natamycin (DSM Food Specialties, Delft, The Netherlands), 800 ppm boscalid or both. Each antifungal composition also comprised 3.2% (w/w) beeswax, 0.8% (w/w) glycerol, 0.7% (w/w) polyoxyethylene sorbitan monostearate (Tween 60), 0.2% (w/w) polyoxyethylene sorbitan monooleate (Tween 80), 0.05% (w/w) methylhydroxyethyl-cellulose (MHEC), 0.03% (w/w) anti-foaming agent, 0.02% (w/w) xanthan gum, 0.02% (w/w) citric acid, 0.01% (w/w) lactic acid and 0.01% potassium sorbate. A composition without natamycin or boscalid was used as control. […] The treated oranges were incubated in a closed box in the dark at 20° C. and assessed on mould growth during a 17-day incubation period. The antifungal activity (in %) of the individual and combined active ingredients was determined by calculating the reduction in mould growth observed on the oranges treated with the antifungal composition in comparison to the mould growth on the oranges treated with the control composition according to the Colby method (Colby, 1967) described in Example 5.
The experiment was conducted as described in Example 7, except for the fact that each wounded and inoculated orange was treated with 150 μl of a freshly prepared aqueous antifungal composition comprising either 250 ppm natamycin (DSM Food Specialties, Delft, The Netherlands), 400 ppm boscalid or both. The treated oranges were incubated in a closed box in the dark at 20° C. and assessed on mould growth during a 18-day incubation period. During incubation, the treated oranges were assessed on mould growth according to the method described in Example 7.

[2] = system: Botrytis cinerea; experiment: Treatment of wounded sweet peppers inoculated with Botrytis cinerea (Examples 9, 10); assay type: in vivo; settings: 20° C., 400 ppm natamycin
Description: Ten fresh, organic sweet peppers were used per treatment. Each sweet pepper was soaked in a 180 ppm hypochlorite solution for 10 minutes, then rinsed thoroughly with fresh tap water and dried. The peel of each disinfected sweet pepper was wounded once using a cork borer according to the method described by de Lapeyre de Bellaire and Dubois (1987). Subsequently, each wound was inoculated with 10 μl of a Botrytis cinerea suspension containing 1×10^5 of spores/ml. After incubation for 3 hours at 20° C., each wound and the skin area of 0.5 cm around the wound was treated with in total 75 μl of a freshly prepared aqueous antifungal composition comprising either 400 ppm natamycin (DSM Food Specialties, Delft, The Netherlands), 600 ppm fenhexamid or both. Each antifungal composition also comprised 3.2% (w/w) beeswax, 0.8% (w/w) glycerol, 0.7% (w/w) polyoxyethylene sorbitan monostearate (Tween 60), 0.2% (w/w) polyoxyethylene sorbitan monooleate (Tween 80), 0.05% (w/w) methylhydroxyethyl-cellulose (MHEC), 0.03% (w/w) anti-foaming agent, 0.02% (w/w) xanthan gum, 0.02% (w/w) citric acid, 0.01% (w/w) lactic acid and 0.01% potassium sorbate. A composition without natamycin or fenhexamid was used as control.
The treated sweet peppers were incubated in a closed box in the dark at 20° C. and assessed on mould growth during a 26-day incubation period. The antifungal activity (in %) of the individual and combined active ingredients was determined by calculating the reduction in mould growth observed on the sweet peppers treated with the antifungal composition in comparison to the mould growth on the sweet peppers treated with the control composition according to the Colby method (Colby, 1967) described in Example 5.
The experiment was conducted as described in Example 9, except for the fact that each wounded and inoculated sweet pepper was treated with 75 μl of a freshly prepared aqueous antifungal composition comprising either 400 ppm natamycin (DSM Food Specialties, Delft, The Netherlands), 800 ppm carboxin or both. The treated sweet peppers were incubated in a closed box in the dark at 20° C. and assessed on mould growth during a 26-day incubation period. During incubation, the treated sweet peppers were assessed on mould growth according to the method described in Example 9.

C[C@@H]1C/C=C/C=C/C=C/C=C/[C@H](O[C@@H]2O[C@H](C)[C@@H](O)[C@H](N)[C@@H]2O)C[C@@H]2O[C@](O)(C[C@@H](O)C[C@H]3O[C@@H]3/C=C/C(=O)O1)C[C@H](O)[C@H]2C(=O)O [Natamycin, natamycin]
Observed antifungal activity O (%) ([1]; 11 days): 69% | Observed antifungal activity O (%) ([1]; 12 days): 66% | Observed antifungal activity O (%) ([1]; 13 days): 62% | Observed antifungal activity O (%) ([1]; 14 days): 51% | Observed antifungal activity O (%) ([1]; 17 days): 39% | Observed antifungal activity O (%) ([1]; 18 days): 34% | Observed antifungal activity O (%) ([2]; 13-17 days, 600 ppm fenhexamid or both): 86% | Observed antifungal activity O (%) ([2]; 17-19 days, 800 ppm carboxin or both): 86% | Observed antifungal activity O (%) ([2]; 18-22 days, 600 ppm fenhexamid or both): 86% | Observed antifungal activity O (%) ([2]; 20-21 days, 800 ppm carboxin or both): 87% | Observed antifungal activity O (%) ([2]; 6 days, 600 ppm fenhexamid or both): 95% | Observed antifungal activity O (%) ([2]; 8 days, 600 ppm fenhexamid or both): 94% | Observed antifungal activity O (%) ([2]; 10 days, 600 ppm fenhexamid or both): 89% | Observed antifungal activity O (%) ([2]; 11 days, 600 ppm fenhexamid or both): 87% | Observed antifungal activity O (%) ([2]; 22 days, 800 ppm carboxin or both): 85% | Observed antifungal activity O (%) ([2]; 24 days, 600 ppm fenhexamid or both): 83% | Observed antifungal activity O (%) ([2]; 24 days, 800 ppm carboxin or both): 83% | Observed antifungal activity O (%) ([2]; 25 days, 600 ppm fenhexamid or both): 82% | Observed antifungal activity O (%) ([2]; 25 days, 800 ppm carboxin or both): 82% | Observed antifungal activity O (%) ([2]; 26 days, 600 ppm fenhexamid or both): 79% | Observed antifungal activity O (%) ([2]; 26 days, 800 ppm carboxin or both): 79%
